This test has as its target T1, human CCR5 (Homo sapiens, UniProt P51681).
T1 construct: expressed in transfected cells
Description: CCR5 binding inhibition: [125I]-RANTES binding to CHO/CCR5 cells. As to conditions: Test Compound 1 µM, 100 pM [125I]-RANTES as ligand, room temperature, 40 minutes, read-out: Inhibitory rate (%) at 1.0 µM. The procedure:
CHO-K1 cells were grown in 750ml of tissue culture flask (Becton Dickinson) using Ham's F12 medium (Nihon Pharmaceutical) containing 10% fetal calf serum (Life Tech Oriental) and took off with 0.5 g/L trypsin-0.2 g/L EDTA (Life Tech Oriental). The cells were washed with PBS (Life Tech Oriental), centrifuged (1000 rpm, 5 minutes), and suspended in PBS. With using Gene Pulser (Bio-Rad Laboratories), DNA was introduced into the cells under the conditions shown below. That is, to the cuvette of 0.4 cm gap were added 8×10^6 cells and 10 µg of plasmid pCKR5 for expression of human CCR5, and electroporation was carried out under 0.25 kV of voltage and 960 µF of capacitance. The cells were transferred into Ham's F12 medium containing 10% fetal calf serum, and cultivated for 24 hours. The cells were again took off and centrifuged, and suspended in Ham's F12 medium containing 10% fetal calf serum and 500 µg/ml of geneticin (Life Tech Oriental). The suspension was diluted to give 10^4 cells/ml of the suspension, which was inoculated on 96 well plate (Becton Dickinson) to give resistant cells. The resulting geneticin resistant cells were cultivated in 96 well plate (Becton Dickinson), and cells expressing CCR5 were selected from the geneticin resistant cells. That is, in assay buffer (Ham's F12 medium containing 0.5% BSA and 20 mM HEPES (Wako Pure Chemical, pH 7.2)) to which was added 200 pM of [^125I]-RANTES (Amersham) as ligand, binding reaction was carried out at room temperature for 40 minutes, and the buffer was washed with cooled PBS. To the buffer was added 50 µl/well of 1M NaOH, and the mixture was stirred. Radioactivity was determined with γ-counter to select CHO/CCR5 cells which specifically bind to the ligand.
The CHO/CCR5 were inoculated on 96 well microplate (5×10^4 cells/well) and cultivated for 24 hours. The medium was removed by means of suction, and to each well was added assay buffer containing Test Compound (1 µM) and then 100 pM of [^125I]-RANTES (Amersham) as ligand. Binding assay was carried out at room temperature for 40 minutes, and assay buffer was removed by means of suction. Each well was washed twice with cooled PBS, and 200 µl of Microscint-20 (Packard Instrument, Inc.) was added to each well. Radio-activity was determined with Top-Count (Packard Instrument, Inc.).
According to the method described above, inhibition rate of Test Compound to CCR5 binding.

Structures can show the parent of a compound that is named as a salt.

T1 sequence (P51681 whole entry): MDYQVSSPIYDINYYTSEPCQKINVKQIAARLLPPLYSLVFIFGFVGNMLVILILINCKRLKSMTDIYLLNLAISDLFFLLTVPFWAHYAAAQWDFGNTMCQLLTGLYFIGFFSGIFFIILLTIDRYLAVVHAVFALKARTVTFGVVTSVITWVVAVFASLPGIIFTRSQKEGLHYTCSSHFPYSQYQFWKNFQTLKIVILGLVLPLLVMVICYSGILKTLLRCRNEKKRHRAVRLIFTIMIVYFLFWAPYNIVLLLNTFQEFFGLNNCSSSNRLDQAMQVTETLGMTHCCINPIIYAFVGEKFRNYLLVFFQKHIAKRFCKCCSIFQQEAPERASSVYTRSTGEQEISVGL

In the case of `O=C1CC(C(=O)N(CCCN2CCC(Cc3ccccc3)CC2)c2ccccc2)CN1c1ccccc1` (stereo not drawn) [Example 52, N-[3-(4-benzyl-1-piperidinyl)propyl]-5-oxo-N,1-diphenyl-3-pyrrolidinecarboxamide], the inhibition at 1 µM came out at 76%. Regarding `CN1CC(C(=O)N(CCCCN2CCC(C(=O)c3ccc(F)cc3)CC2)c2ccccc2)CC1=O` (stereo not drawn) [Example 17, N-{4-[4-(4-fluorobenzoyl)-1-piperidinyl]butyl}-1-methyl-5-oxo-N-phenyl-3-pyrrolidinecarboxamide], the inhibition at 1 µM is 22%. With `O=C1CC(C(=O)N(CCCN2CCC(Cc3ccccc3)CC2)c2ccccc2)CN1Cc1ccccc1` (stereo not drawn) [Example 51, 1-benzyl-N-[3-(4-benzyl-1-piperidinyl)propyl]-5-oxo-N-phenyl-3-pyrrolidinecarboxamide], the inhibition at 1 µM was 92%. For `CN1CC(C(=O)N(CCCN2CCC(C(=O)c3ccc(F)cc3)CC2)c2ccccc2)CC1=O` (stereo not drawn) [Example 13, N-{3-[4-(4-fluorobenzoyl) -1-piperidinyl]propyl}-1-methyl-5-oxo-N-phenyl-3-pyrrolidinecarboxamide], the inhibition at 1 µM turned out to be 40%.

With `CN1CC(C(=O)N(CCCN2CCC(Cc3ccccc3)CC2)Cc2ccccc2)CC1=O` (stereo not drawn) [Example 62, N-benzyl-N-[3-(4-benzyl-1-piperidinyl)propyl]-1-methyl-5-oxo-3-pyrrolidinecarboxamide], the inhibition at 1 µM is 67%. As for `O=C1CC(C(=O)N(CCCN2CCC(Cc3ccccc3)CC2)c2ccccc2)CN1CC(F)(F)F` (stereo not drawn) [Example 93, N-[3-(4-benzyl-1-piperidinyl)propyl]-5-oxo-N-phenyl-1-(2,2,2-trifluoroethyl)-3-pyrrolidinecarboxamide], the inhibition at 1 µM turned out to be 90%. The value for `O=C1CC(C(=O)N(CCCN2CCC(Cc3ccccc3)CC2)c2ccccc2)CN1Cc1ccccc1Cl` (stereo not drawn) [Example 76, N-[3-(4-benzyl-1-piperidinyl)propyl]-1-(2-chlorobenzyl)-5-oxo-N-phenyl-3-pyrrolidinecarboxamide] was 91%; that for `CN1CC(C(=O)N(CCCN2CCC3(C=Cc4ccccc43)CC2)c2ccccc2)CC1=O` (stereo not drawn) [Example 8, N-[3-(indene-1-spiro-4'-piperidin-1'-yl)propyl]-1-methyl-5-oxo-N-phenyl-3-pyrrolidinecarboxamide fumarate] was 24%; that for `CN1CC(C(=O)N(CCCN2CCC(Cc3ccccc3)CC2)c2ccc(Cl)c(Cl)c2)CC1=O` (stereo not drawn) [Example 23, N-[3-(4-benzyl-1-piperidinyl)propyl]-N-(3,4-dichlorophenyl)-1-methyl-5-oxo-3-pyrrolidinecarboxamide hydrochloride] was 95%. As to `CN1CC(C(=O)N(CCCN2CCC(Cc3ccccc3)CC2)c2cccc(Cl)c2)CC1=O` (stereo not drawn) [Example 38, N-[3-(4-benzyl-1-piperidinyl)propyl]-N-(3-chlorophenyl)-1-methyl-5-oxo-3-pyrrolidinecarboxamide hydrochloride], the inhibition at 1 µM was determined as 82%. On to `CN1CC(C(=O)N(CCCN2CCC(Cc3ccc(F)cc3)CC2)c2ccc(Cl)c(Cl)c2)CC1=O` (stereo not drawn) [Example 84, N-(3,4-dichlorophenyl)-N-{3-[4-(4-fluorobenzyl)-1-piperidinyl]propyl}-1-methyl-5-oxo-3-pyrrolidinecarboxamide hydrochloride], for which the inhibition at 1 µM is 92%. In the case of `CN1CC(C(=O)N(CCCN2CCC(Cc3ccccc3)CC2)c2ccccc2)CC1=O` (stereo not drawn) [Example 1, N-[3-(4-benzyl-1-piperidinyl)propyl]-1-methyl-5-oxo-N-phenyl-3-pyrrolidinecarboxamide hydrochloride], the inhibition at 1 µM came out at 57%.

The values above are taken from patent publication EP1180513A1, “CYCLIC AMIDE COMPOUNDS, PROCESS FOR THE PREPARATION OF THE SAME AND USES THEREOF” (Takeda Chemical Industries, Ltd., priority 1999, dated 2000).
